SMILES strings stand for the structures.

For assay [1], the target named is T1, PI3Kβ (Homo sapiens, UniProt P42338).
T1 construct: Full-length p110β/p85α and p110δ/p85α were cloned and expressed in a similar manner; Strep-tag followed by TEV protease site (N, cleaved yes); made in house; host or cells: Spodoptera frugiperda Sf9 (plasmids OP832 and OP809)
As to the kind of experiment: ADP-Glo in vitro lipid kinase assay, PI3Kβ. The class given is biochemical. On the procedure: The effect of 1938 on the in vitro lipid kinase activity of p85α in complex with p110α, p110β or p110δ (further referred to as PI3Kα, PI3Kβ and PI3Kδ) was tested. As a positive control, a bis-phosphorylated phosphopeptide (a PDGF-receptor-derived peptide phosphorylated on Tyr-740 and Tyr-751, hereafter referred to as pY peptide) was used to mimic engagement of the p85α SH2 domains with tyrosine-phosphorylated peptides in membrane-bound receptors and adaptor proteins, known to activate the PI3Kα complex.
Kinase reactions were performed with ADP-Glo kinase assay kit (Promega Corporation). The enzyme, substrate and compounds were diluted in reaction buffer (20 mM HEPES, 50 mM NaCl, 50 mM KCl, 3 mM MgCl2, 1 mM EGTA, 1 mM TCEP, pH 7.4). Final concentrations of PI3Kα and PI3Kδ used were 25 nM and 50 nM for PI3Kβ. […]
For compound profiling, the reaction mixture contained 2 μl PI3K enzyme, 2 μl compound and/or pY and 2 μl of liposome substrate mixed with ATP. […] Luminescence was read using a Sense (Hidex) plate reader. […]
For characterisation of the effects of 1938 on in vitro PI3K enzymology, all reactions were performed at room temperature with 384 white-polystyrene plates (Corning #3574). […] For enzyme kinetic calculations, data was expressed as velocity (pmol of ADP generated/sec). […]

The test system of assay [2] is mutant PI3Kα (D603K, D603A, 603DCN_AAA605, D603A/F1016S, L1006R, F1016S, L1006R/F1016S). As to the kind of experiment: Activation of binding-pocket mutants of PI3Kα. As to conditions: all mutants activatable by pY. The class given is biochemical. The text has this:
The inventors then performed mutagenesis in attempt to generate 1938-resistant mutants. Based on the crystal structure and SAR data, we made the following mutants: D603K, D603A, 603DCN_AAA605 triple mutant, D603A/F1016S double mutant, L1006R, F1016S, and the L1006R/F1016S double mutant.

Assay [3] relates to pAKT^S473 in MEFs and A549. As to the kind of experiment: Time course of pAKT S473 induction in MEFs and A549. The note with it: 1938 (5 μM). The format is cell-based. From the text:
The inventors next monitored the activation of AKT, the best-known PI3K effector stimulated by PIP3/PI(3,4)P2 production in cells. […] As previously reported, PI3Kα-null MEFs still respond to insulin, but now in a PI3Kβ-dependent manner, as shown by sensitivity of insulin-stimulated pAKT^S473 to the PI3Kβ-selective inhibitor TGX-221 (FIG. 3b). […] Similar observations were made for mTORC1 pathway activation, as measured by S6 (Ser240/44) and 4EBP1 (Ser65) phosphorylation (FIG. 3e). […] Experiments with A549 cells and MEFs were performed separately using slightly different protocols. Briefly, A549 cells were seeded at 200,000 cells per well in 24-well plates in DMEM (10% FBS+1% P/S) and allowed to adhere overnight. The next day, cells were washed once with PBS before addition of serum-free DMEM for 24 h. On the day of treatment, cells were incubated in fresh serum-free DMEM prior to treatment. […]

T1 sequence (P42338 whole entry, species assumed): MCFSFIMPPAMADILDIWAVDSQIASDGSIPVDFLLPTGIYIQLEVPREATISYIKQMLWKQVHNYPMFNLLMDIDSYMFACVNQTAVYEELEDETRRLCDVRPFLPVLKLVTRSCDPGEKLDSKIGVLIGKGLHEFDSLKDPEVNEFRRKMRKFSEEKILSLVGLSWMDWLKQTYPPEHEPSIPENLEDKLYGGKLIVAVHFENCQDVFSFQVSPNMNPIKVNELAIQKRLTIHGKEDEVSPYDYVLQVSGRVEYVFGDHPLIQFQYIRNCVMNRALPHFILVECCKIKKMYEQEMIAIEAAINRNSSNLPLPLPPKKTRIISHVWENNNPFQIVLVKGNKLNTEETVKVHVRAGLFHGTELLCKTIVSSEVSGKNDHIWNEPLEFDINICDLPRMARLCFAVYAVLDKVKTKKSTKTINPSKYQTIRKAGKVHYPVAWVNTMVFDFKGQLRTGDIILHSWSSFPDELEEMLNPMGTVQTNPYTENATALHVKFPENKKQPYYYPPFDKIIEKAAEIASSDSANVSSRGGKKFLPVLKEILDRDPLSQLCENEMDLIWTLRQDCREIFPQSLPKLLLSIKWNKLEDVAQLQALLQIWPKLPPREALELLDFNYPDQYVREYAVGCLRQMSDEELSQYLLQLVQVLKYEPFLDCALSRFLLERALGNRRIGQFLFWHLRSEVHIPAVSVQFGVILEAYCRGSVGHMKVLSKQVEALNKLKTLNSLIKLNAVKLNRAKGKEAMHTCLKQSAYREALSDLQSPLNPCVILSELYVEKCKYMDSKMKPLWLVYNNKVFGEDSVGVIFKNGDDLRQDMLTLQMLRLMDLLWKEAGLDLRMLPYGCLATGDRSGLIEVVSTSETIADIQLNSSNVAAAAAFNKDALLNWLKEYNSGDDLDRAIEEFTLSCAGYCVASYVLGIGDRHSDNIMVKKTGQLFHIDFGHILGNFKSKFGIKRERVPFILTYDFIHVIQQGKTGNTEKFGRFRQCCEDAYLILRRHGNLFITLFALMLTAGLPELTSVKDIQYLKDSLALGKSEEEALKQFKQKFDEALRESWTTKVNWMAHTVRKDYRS
T1 sequence (P27986 whole entry partner, species assumed): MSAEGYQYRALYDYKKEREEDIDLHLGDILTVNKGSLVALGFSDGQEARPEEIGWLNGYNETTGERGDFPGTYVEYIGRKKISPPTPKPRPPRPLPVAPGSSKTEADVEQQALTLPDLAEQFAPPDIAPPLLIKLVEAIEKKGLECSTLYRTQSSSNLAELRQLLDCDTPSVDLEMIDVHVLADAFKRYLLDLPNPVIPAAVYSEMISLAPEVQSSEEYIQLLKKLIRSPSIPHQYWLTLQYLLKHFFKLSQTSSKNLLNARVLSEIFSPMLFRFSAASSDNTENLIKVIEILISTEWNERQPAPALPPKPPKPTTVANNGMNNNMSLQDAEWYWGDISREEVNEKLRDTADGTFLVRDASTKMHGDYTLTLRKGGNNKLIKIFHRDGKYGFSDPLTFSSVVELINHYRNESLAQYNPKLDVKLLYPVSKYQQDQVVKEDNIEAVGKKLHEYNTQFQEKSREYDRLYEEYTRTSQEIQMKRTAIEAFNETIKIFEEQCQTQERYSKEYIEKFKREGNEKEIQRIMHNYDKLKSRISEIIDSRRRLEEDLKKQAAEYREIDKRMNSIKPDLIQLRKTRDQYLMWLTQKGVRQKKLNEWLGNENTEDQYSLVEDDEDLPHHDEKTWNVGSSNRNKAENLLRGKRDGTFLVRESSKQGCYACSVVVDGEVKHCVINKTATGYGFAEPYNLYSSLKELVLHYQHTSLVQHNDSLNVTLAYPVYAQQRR

On to `CCN1CCN(c2ccc(Nc3cc(Nc4cccc5c4N(C(C)=O)CC5)ccn3)cc2)CC1` [Example 1938], for which the “effect on in vitro lipid kinase activity of PI3Kβ” value in assay [1] is “not PI3Kβ”. Besides, in assay [2], the “activation of pocket mutants by 1938” value was “resistant to activation by 1938”. In assay [3], the “time of onset of pAKT^S473 induction” value stood at 5 min and the “time of peak pAKT^S473 activation” value is reported as 30 min.

The record behind these values is patent US20250263404A1, “AMINOPYRIDINES AS ACTIVATORS OF PI3 KINASE” (UCL Business Ltd, priority 2021, published 2025).
